Data reported in US10392391B2 (Vertex Pharmaceuticals Incorporated, priority 2012, dated 2019).

Target: ATR kinase (full-length ATR) (Homo sapiens (Human), UniProt Q13535)
Assay: ATR inhibition assay (radioactive-phosphate incorporation)
Format: biochemical
Conditions: not given
Description: Compounds were screened for their ability to inhibit ATR kinase using a radioactive-phosphate incorporation assay. Assays were carried out in a mixture of 50 mM Tris/HCl (pH 7.5), 10 mM MgCl2 and 1 mM DTT. Final substrate concentrations were 10 μM [γ-33P]ATP (3mCi 33P ATP/mmol ATP, Perkin Elmer) and 800 μM target peptide ([…]) (SEQ ID NO:1).
Assays were carried out at 25° C. in the presence of 5 nM full-length ATR. An assay stock buffer solution was prepared containing all of the reagents listed above, with the exception of ATP and the test compound of interest. 13.5 μL of the stock solution was placed in a 96 well plate followed by addition of 2 μL of DMSO stock containing serial dilutions of the test compound (typically starting from a final concentration of 15 μM with 3-fold serial dilutions) in duplicate (final DMSO concentration 7%). The plate was pre-incubated for 10 minutes at 25° C. and the reaction initiated by addition of 15 μL [γ-33P]ATP (final concentration 10 μM).
The reaction was stopped after […] by the addition of 30 μL 0.1M phosphoric acid containing 2 mM ATP. A multiscreen phosphocellulose filter 96-well plate (Millipore, Cat no. MAPHN0B50) was pretreated with 100 μL 0.2M phosphoric acid prior to the addition of […] of the stopped assay mixture. The plate was washed with 5×200 μL 0.2M phosphoric acid. After drying, 100 μL Optiphase ‘SuperMix’ liquid scintillation cocktail (Perkin Elmer) was added to the well prior to scintillation counting (1450 Microbeta Liquid Scintillation Counter, Wallac).
After removing mean background values for all of the data points, Ki(app) data were calculated from non-linear regression analysis of the initial rate data using the Prism software package (GraphPad Prism version 3.0cx for Macintosh, GraphPad Software, San Diego Calif., USA).

Chain of ATR kinase (full-length ATR) (Q13535 whole entry): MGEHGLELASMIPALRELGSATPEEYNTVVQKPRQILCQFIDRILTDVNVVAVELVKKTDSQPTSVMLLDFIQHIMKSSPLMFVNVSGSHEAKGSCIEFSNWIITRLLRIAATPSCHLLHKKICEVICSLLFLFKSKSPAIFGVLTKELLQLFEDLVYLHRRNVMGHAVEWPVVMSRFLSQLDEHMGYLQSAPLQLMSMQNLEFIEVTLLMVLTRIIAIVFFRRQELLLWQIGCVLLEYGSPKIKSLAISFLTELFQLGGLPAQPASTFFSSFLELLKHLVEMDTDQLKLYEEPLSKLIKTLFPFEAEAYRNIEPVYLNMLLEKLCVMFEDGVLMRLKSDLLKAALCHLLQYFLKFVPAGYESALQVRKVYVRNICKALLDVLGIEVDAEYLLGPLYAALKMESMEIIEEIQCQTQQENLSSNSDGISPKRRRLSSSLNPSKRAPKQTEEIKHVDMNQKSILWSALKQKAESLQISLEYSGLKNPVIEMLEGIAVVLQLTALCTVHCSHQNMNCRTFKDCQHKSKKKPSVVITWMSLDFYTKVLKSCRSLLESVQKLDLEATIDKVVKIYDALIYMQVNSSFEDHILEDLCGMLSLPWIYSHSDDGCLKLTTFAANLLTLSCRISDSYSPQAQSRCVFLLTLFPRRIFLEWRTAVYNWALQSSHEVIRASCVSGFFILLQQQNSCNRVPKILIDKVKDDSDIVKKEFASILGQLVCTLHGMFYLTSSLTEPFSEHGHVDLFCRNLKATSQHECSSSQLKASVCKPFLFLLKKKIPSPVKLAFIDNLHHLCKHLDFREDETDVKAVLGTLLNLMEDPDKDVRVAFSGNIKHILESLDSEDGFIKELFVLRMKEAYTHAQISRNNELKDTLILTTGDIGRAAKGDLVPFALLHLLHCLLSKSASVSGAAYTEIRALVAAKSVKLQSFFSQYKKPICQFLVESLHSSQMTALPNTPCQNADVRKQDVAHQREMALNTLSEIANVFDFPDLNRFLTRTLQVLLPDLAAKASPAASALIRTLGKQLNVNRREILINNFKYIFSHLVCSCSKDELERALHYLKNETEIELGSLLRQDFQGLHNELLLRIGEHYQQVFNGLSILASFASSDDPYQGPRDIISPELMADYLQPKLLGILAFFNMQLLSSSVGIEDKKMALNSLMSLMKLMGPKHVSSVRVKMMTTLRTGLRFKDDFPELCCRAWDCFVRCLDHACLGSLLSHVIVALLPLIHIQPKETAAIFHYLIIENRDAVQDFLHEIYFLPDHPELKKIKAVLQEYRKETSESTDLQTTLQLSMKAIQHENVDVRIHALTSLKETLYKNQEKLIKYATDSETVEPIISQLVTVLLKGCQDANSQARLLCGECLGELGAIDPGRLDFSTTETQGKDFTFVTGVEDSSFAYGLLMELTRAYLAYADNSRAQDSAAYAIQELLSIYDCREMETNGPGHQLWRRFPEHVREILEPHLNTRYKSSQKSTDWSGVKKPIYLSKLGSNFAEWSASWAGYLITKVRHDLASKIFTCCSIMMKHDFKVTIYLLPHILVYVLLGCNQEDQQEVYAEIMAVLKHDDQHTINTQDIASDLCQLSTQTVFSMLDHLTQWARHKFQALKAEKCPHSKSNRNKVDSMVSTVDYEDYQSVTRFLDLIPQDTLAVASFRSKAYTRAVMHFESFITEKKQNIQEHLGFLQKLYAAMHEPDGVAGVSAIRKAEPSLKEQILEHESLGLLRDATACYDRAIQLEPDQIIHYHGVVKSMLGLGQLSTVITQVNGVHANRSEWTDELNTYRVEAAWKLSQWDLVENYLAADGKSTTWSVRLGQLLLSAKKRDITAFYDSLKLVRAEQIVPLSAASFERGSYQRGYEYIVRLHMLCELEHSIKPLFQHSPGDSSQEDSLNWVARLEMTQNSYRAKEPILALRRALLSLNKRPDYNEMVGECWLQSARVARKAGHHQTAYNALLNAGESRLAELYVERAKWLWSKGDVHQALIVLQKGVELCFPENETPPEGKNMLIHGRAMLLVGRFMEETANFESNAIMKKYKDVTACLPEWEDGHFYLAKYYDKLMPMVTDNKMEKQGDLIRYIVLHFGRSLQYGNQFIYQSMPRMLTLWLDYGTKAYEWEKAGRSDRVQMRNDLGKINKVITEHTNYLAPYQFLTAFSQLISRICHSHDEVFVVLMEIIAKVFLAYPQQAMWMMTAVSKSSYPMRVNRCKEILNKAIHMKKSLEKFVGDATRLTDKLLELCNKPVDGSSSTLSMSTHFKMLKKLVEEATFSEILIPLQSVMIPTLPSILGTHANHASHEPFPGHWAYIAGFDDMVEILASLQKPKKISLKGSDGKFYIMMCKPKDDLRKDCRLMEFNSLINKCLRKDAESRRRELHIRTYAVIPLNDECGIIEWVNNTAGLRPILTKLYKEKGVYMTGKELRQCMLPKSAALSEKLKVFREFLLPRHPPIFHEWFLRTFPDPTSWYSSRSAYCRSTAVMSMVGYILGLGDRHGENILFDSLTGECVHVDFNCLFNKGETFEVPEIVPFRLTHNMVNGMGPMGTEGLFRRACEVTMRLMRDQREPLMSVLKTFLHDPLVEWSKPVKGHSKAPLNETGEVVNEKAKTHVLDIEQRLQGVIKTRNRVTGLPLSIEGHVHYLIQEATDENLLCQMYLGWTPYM

Row | Ki | SMILES
1 | 1000 to 5000 nM | CN1CCC(c2ccncc2NC(=O)c2c(N)nn3cc(F)cnc23)CC1 [I-C-1, 2-amino-6-fluoro-N-(4-(1-methylpiperidin-4-yl)pyridin-3-yl)pyrazolo[1,5-a]pyrimidine-3-carboxamide]
2 | 1000 to 5000 nM | Cc1ccncc1NC(=O)c1c(N)nn2cc(Cl)cnc12 [I-C-2, 2-amino-6-chloro-N-(4-methylpyridin-3-yl)pyrazolo[1,5-a]pyrimidine-3-carboxamide]
3 | 1000 to 5000 nM | Nc1nn2cc(F)cnc2c1C(=O)Nc1cncc(F)c1C1CCN(C2COC2)CC1 [I-C-13, 2-amino-6-fluoro-N-(5-fluoro-4-(1-(oxetan-3-yl)piperidin-4-yl)pyridin-3-yl)pyrazolo[1,5-a]pyrimidine-3-carboxamide]
4 | 1000 to 5000 nM | CN1CCC(c2c(F)cncc2NC(=O)c2c(N)nn3cc(F)cnc23)CC1 [I-C-14, 2-amino-6-fluoro-N-(5-fluoro-4-(1-methylpiperidin-4-yl)pyridin-3-yl)pyrazolo[1,5-a]pyrimidine-3-carboxamide]
5 | 1000 to 5000 nM | CN1CCC(c2ccncc2NC(=O)c2c(N)nn3cc(C(C)(C)C#N)cnc23)CC1 [I-C-23, 2-amino-6-(2-cyanopropan-2-yl)-N-(4-(1-methylpiperidin-4-yl)pyridin-3-yl)pyrazolo[1,5-a]pyrimidine-3-carboxamide]

Same assay, conditions: Ki(app), 5 nM full-length ATR, 10 μM ATP, 25° C.

Row | Ki | SMILES
6 | 10 to 1000 nM | Nc1nn2cc(F)cnc2c1C(=O)Nc1cnccc1N1CCN(C2CCOC2)CC1 (racemic) [I-N-19, (R,S)-2-amino-6-fluoro-N-(4-(4-(tetrahydrofuran-3-yl)piperazin-1-yl)pyridin-3-yl)pyrazolo[1,5-a]pyrimidine-3-carboxamide]
7 | < 10 nM | N#CCc1cnc2c(C(=O)Nc3cnccc3OC3CCCNC3)c(N)nn2c1 (racemic) [I-O-2, (R,S)-2-amino-6-(cyanomethyl)-N-(4-(piperidin-3-yloxy)pyridin-3-yl)pyrazolo[1,5-a]pyrimidine-3-carboxamide]
8 | 10 to 1000 nM | Nc1nn2cc(F)cnc2c1C(=O)Nc1cnccc1OC1CCOC1 (racemic) [I-O-15, (R,S)-2-amino-6-fluoro-N-(4-((tetrahydrofuran-3-yl)oxy)pyridin-3-yl)pyrazolo[1,5-a]pyrimidine-3-carboxamide]
9 | < 10 nM | N#CCc1cnc2c(C(=O)Nc3cnccc3OC3CCOC3)c(N)nn2c1 (racemic) [I-O-37, (R,S)-2-amino-6-(cyanomethyl)-N-(4-((tetrahydrofuran-3-yl)oxy)pyridin-3-yl)pyrazolo[1,5-a]pyrimidine-3-carboxamide]
10 | 10 to 1000 nM | Cc1ccncc1NC(=O)c1c(N)nn2cc(CC#N)cnc12 [I-C-3, 2-amino-6-(cyanomethyl)-N-(4-methylpyridin-3-yl)pyrazolo[1,5-a]pyrimidine-3-carboxamide]
11 | 10 to 1000 nM | Cc1ccncc1NC(=O)c1c(N)nn2cc(F)cnc12 [I-C-4, 2-amino-6-fluoro-N-(4-methylpyridin-3-yl)pyrazolo[1,5-a]pyrimidine-3-carboxamide]
12 | 10 to 1000 nM | Nc1nn2cc(F)cnc2c1C(=O)Nc1cnccc1-c1ccccc1 [I-C-5, 2-amino-6-fluoro-N-(4-phenylpyridin-3-yl)pyrazolo[1,5-a]pyrimidine-3-carboxamide]
13 | 10 to 1000 nM | N#CCc1cnc2c(C(=O)Nc3cnccc3-c3ccccc3)c(N)nn2c1 [I-C-6, 2-amino-6-(cyanomethyl)-N-(4-phenylpyridin-3-yl)pyrazolo[1,5-a]pyrimidine-3-carboxamide]
14 | 10 to 1000 nM | Nc1nn2cc(F)cnc2c1C(=O)Nc1cncc2c1CCNC2 [I-C-7, 2-amino-6-fluoro-N-(5,6,7,8-tetrahydro-2,7-naphthyridin-4-yl)pyrazolo[1,5-a]pyrimidine-3-carboxamide]
15 | 10 to 1000 nM | CN1CCc2c(cncc2NC(=O)c2c(N)nn3cc(F)cnc23)C1 [I-C-8, 2-amino-6-fluoro-N-(7-methyl-5,6,7,8-tetrahydro-2,7-naphthyridin-4-yl)pyrazolo[1,5-a]pyrimidine-3-carboxamide]
16 | 10 to 1000 nM | C[N+]1([O-])CCc2c(cncc2NC(=O)c2c(N)nn3cc(F)cnc23)C1 (stereo not shown) [I-C-9, 5-(2-amino-6-fluoropyrazolo[1,5-a]pyrimidine-3-carboxamido)-2-methyl-1,2,3,4-tetrahydro-2,7-naphthyridine 2-oxide]
17 | 10 to 1000 nM | Nc1nn2cc(F)cnc2c1C(=O)Nc1cnccc1C1CCN(C2COC2)CC1 [I-C-10, 2-amino-6-fluoro-N-(4-(1-(oxetan-3-yl)piperidin-4-yl)pyridin-3-yl)pyrazolo[1,5-a]pyrimidine-3-carboxamide]
18 | 10 to 1000 nM | Nc1nn2cc(Cl)cnc2c1C(=O)Nc1cnccc1C1CCN(C2COC2)CC1 [I-C-11, 2-amino-6-chloro-N-(4-(1-(oxetan-3-yl)piperidin-4-yl)pyridin-3-yl)pyrazolo[1,5-a]pyrimidine-3-carboxamide]
19 | 10 to 1000 nM | Nc1nn2cc(F)cnc2c1C(=O)Nc1cnccc1-c1cccnc1 [I-C-15, N-([3,4′-bipyridin]-3′-yl)-2-amino-6-fluoropyrazolo[1,5-a]pyrimidine-3-carboxamide]
20 | 10 to 1000 nM | CN1CCC(C(=O)N2CCC(c3ccncc3NC(=O)c3c(N)nn4cc(F)cnc34)CC2)CC1 [I-C-16, 2-amino-6-fluoro-N-(4-(1-(1-methylpiperidine-4-carbonyl)piperidin-4-yl)pyridin-3-yl)pyrazolo[1,5-a]pyrimidine-3-carboxamide]
21 | 10 to 1000 nM | CN1CCN(C(=O)N2CCC(c3ccncc3NC(=O)c3c(N)nn4cc(F)cnc34)CC2)CC1 [I-C-17, 2-amino-6-fluoro-N-(4-(1-(4-methylpiperazine-1-carbonyl)piperidin-4-yl)pyridin-3-yl)pyrazolo[1,5-a]pyrimidine-3-carboxamide]
22 | 10 to 1000 nM | CN1CCN(C(=O)c2ccc(-c3ccncc3NC(=O)c3c(N)nn4cc(F)cnc34)cn2)CC1 [I-C-19, 2-amino-6-fluoro-N-(6-(4-methylpiperazine-1-carbonyl)-[3,4′-bipyridin]-3′-yl)pyrazolo[1,5-a]pyrimidine-3-carboxamide]
23 | 10 to 1000 nM | Cc1ncccc1-c1ccncc1NC(=O)c1c(N)nn2cc(F)cnc12 [I-C-20, 2-amino-6-fluoro-N-(2-methyl-[3,4′-bipyridin]-3′-yl)pyrazolo[1,5-a]pyrimidine-3-carboxamide]
24 | 10 to 1000 nM | CN1CCN(c2ccc(-c3ccncc3NC(=O)c3c(N)nn4cc(F)cnc34)cn2)CC1 [I-C-21, 2-amino-6-fluoro-N-(6-(4-methylpiperazin-1-yl)-[3,4′-bipyridin]-3′-yl)pyrazolo[1,5-a]pyrimidine-3-carboxamide]
25 | 10 to 1000 nM | Cc1ccc(-c2ccncc2NC(=O)c2c(N)nn3cc(F)cnc23)cn1 [I-C-22, 2-amino-6-fluoro-N-(6-methyl-[3,4′-bipyridin]-3′-yl)pyrazolo[1,5-a]pyrimidine-3-carboxamide]
26 | 10 to 1000 nM | Nc1nn2cc(F)cnc2c1C(=O)Nc1cnccc1-c1ccncc1 [I-C-24, N-([4,4′-bipyridin]-3-yl)-2-amino-6-fluoropyrazolo[1,5-a]pyrimidine-3-carboxamide]
27 | 10 to 1000 nM | Nc1nn2cc(F)cnc2c1C(=O)Nc1cnccc1-c1ccnnc1 [I-C-26, 2-amino-6-fluoro-N-(4-(pyridazin-4-yl)pyridin-3-yl)pyrazolo[1,5-a]pyrimidine-3-carboxamide]
28 | 10 to 1000 nM | COc1ccc(-c2ccncc2NC(=O)c2c(N)nn3cc(F)cnc23)cn1 [I-C-27, 2-amino-6-fluoro-N-(6-methoxy-[3,4′-bipyridin]-3′-yl)pyrazolo[1,5-a]pyrimidine-3-carboxamide]
29 | 10 to 1000 nM | Nc1nn2cc(F)cnc2c1C(=O)Nc1cnccc1-c1cncnc1 [I-C-28, 2-amino-6-fluoro-N-(4-(pyrimidin-5-yl)pyridin-3-yl)pyrazolo[1,5-a]pyrimidine-3-carboxamide]
30 | 10 to 1000 nM | Cc1cnccc1-c1ccncc1NC(=O)c1c(N)nn2cc(F)cnc12 [I-C-29, 2-amino-6-fluoro-N-(3′-methyl-[4,4′-bipyridin]-3-yl)pyrazolo[1,5-a]pyrimidine-3-carboxamide]

Row | SMILES | Ki
31 | Nc1nn2cc(F)cnc2c1C(=O)Nc1cnccc1OC1CN2CCC1CC2 (racemic) [I-O-6, (R,S)-2-amino-6-fluoro-N-(4-(quinuclidin-3-yloxy)pyridin-3-yl)pyrazolo[1,5-a]pyrimidine-3-carboxamide] | 10 to 1000 nM
32 | N#CCc1cnc2c(C(=O)Nc3cnccc3OC3CN4CCC3CC4)c(N)nn2c1 (racemic) [I-O-22, (R,S)-2-amino-6-(cyanomethyl)-N-(4-(quinuclidin-3-yloxy)pyridin-3-yl)pyrazolo[1,5-a]pyrimidine-3-carboxamide] | 10 to 1000 nM
33 | Nc1nn2cc(F)cnc2c1C(=O)Nc1cncc(F)c1C1=CCN(C2COC2)CC1 [I-C-12, 2-amino-6-fluoro-N-(5-fluoro-1′-(oxetan-3-yl)-1′,2′,3′,6′-tetrahydro-[4,4′-bipyridin]-3-yl)pyrazolo[1,5-a]pyrimidine-3-carboxamide] | 10 to 1000 nM
34 | Nc1nn2cc(F)cnc2c1C(=O)Nc1cnccc1C1CCN(C(=O)C23CCN(CC2)CC3)CC1 [I-C-18, 2-amino-6-fluoro-N-(4-(1-(quinuclidine-4-carbonyl)piperidin-4-yl)pyridin-3-yl)pyrazolo[1,5-a]pyrimidine-3-carboxamide] | 10 to 1000 nM
